Read-outs that look alike come from different tables or passages of the source.
Assays:
Test in all cases: Test C pre/postemergence
Type in all cases: in vivo
[1] = system: cocklebur (Xanthium strumarium); details: Xanthium strumarium; for pest or weed control at 62 g/ha: 62 g ai/ha; for pest or weed control at 125 g/ha: 125 g ai/ha; for pest or weed control at 250 g/ha: 250 g ai/ha; for pest or weed control at 500 g/ha: 500 g ai/ha
Method in brief: (§1)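 Injury scored visually 12–14 days after application on 0–100 scale (100 = complete control), relative to controls. Compounds, formulated with surfactant in non-phytotoxic solvent, applied to soil at planting (pre) or to 1- to 4-leaf plants 2–18 cm tall (post) in greenhouse.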

[2] = system: yellow nutsedge (Cyperus esculentus); details: Cyperus; for pest or weed control at 62 g/ha: 62 g ai/ha; for pest or weed control at 125 g/ha: 125 g ai/ha; for pest or weed control at 250 g/ha: 250 g ai/ha; for pest or weed control at 500 g/ha: 500 g ai/ha
Method in brief: as §1

corn (Zea mays) = details: Zea mays; for Corn plant response rating (crop injury, 0 = no effect, 100 = complete kill) at 125 g/ha: 125 g ai/ha; for Corn plant response rating (crop injury, 0 = no effect, 100 = complete kill) at 250 g/ha: 250 g ai/ha; for Corn plant response rating (crop injury, 0 = no effect, 100 = complete kill) at 500 g/ha: 500 g ai/ha
Method in brief: as §1

[3] = system: Surinam grass (Brachiaria decumbens); details: Urochloa decumbens; for pest or weed control at 125 g/ha: 125 g ai/ha; for pest or weed control at 500 g/ha: 500 g ai/ha; for pest or weed control at 62 g/ha: 62 g ai/ha; for pest or weed control at 250 g/ha: 250 g ai/ha
Method in brief: as §1

[4] = system: velvetleaf (Abutilon theophrasti); details: Abutilon theophrasti; for pest or weed control at 62 g/ha: 62 g ai/ha; for pest or weed control at 125 g/ha: 125 g ai/ha; for pest or weed control at 250 g/ha: 250 g ai/ha; for pest or weed control at 500 g/ha: 500 g ai/ha
Method in brief: as §1

[5] = system: crabgrass (Digitaria sanguinalis); details: Digitaria sanguinalis; for pest or weed control at 62 g/ha: 62 g ai/ha; for pest or weed control at 125 g/ha: 125 g ai/ha
Method in brief: as §1

[6] = post-emergence, Postemergence, scale 0 to 100 (0 no effect, 100 complete control), read-out: Cocklebur plant response rating
[7] = post-emergence, Postemergence, scale 0 to 100, read-out: Plant response rating, Cocklebur
[8] = pre-emergence, Preemergence, scale 0 to 100, read-out: Plant response rating, Cocklebur
[9] = post-emergence, Postemergence, scale 0 to 100 (0 no effect, 100 complete control), read-out: Nutsedge, Yellow plant response rating
[10] = post-emergence, Postemergence, scale 0 to 100, read-out: Plant response rating, Nutsedge, Yellow
[11] = pre-emergence, Preemergence, scale 0 to 100, read-out: Plant response rating, Nutsedge, Yellow
[12] = post-emergence, Postemergence, scale 0 to 100
[13] = pre-emergence, Preemergence, scale 0 to 100
[14] = post-emergence, Postemergence, scale 0 to 100 (0 no effect, 100 complete control), read-out: Surinam Grass plant response rating
[15] = post-emergence, Postemergence, scale 0 to 100, read-out: Plant response rating, Surinam Grass
[16] = pre-emergence, Preemergence, scale 0 to 100, read-out: Plant response rating, Surinam Grass
[17] = post-emergence, Postemergence, scale 0 to 100 (0 no effect, 100 complete control), read-out: Velvetleaf plant response rating
[18] = post-emergence, Postemergence, scale 0 to 100, read-out: Plant response rating, Velvetleaf
[19] = pre-emergence, Preemergence, scale 0 to 100, read-out: Plant response rating, Velvetleaf
[20] = post-emergence, Postemergence, scale 0 to 100 (0 no effect, 100 complete control), read-out: Crabgrass plant response rating

`CCOC(=O)c1nc(C2CC2)nc(N)c1Cl` [Compound 4, ethyl 6-amino-5-chloro-2-cyclopropyl-4-pyrimidinecarboxylate] was tested, and the pest or weed control at 62 g/ha [1, 6] was 85%, the pest or weed control at 125 g/ha [1, 6] was 100% and the pest or weed control at 250 g/ha [1, 7] was 100%. The pest or weed control at 500 g/ha [1, 7] was 100%, the pest or weed control at 62 g/ha ([1]; pre-emergence, Preemergence, scale 0 to 100, 0 no effect, 100 complete control, read-out: Plant response rating, Cocklebur) was 80% and the pest or weed control at 125 g/ha [1, 8] was 95%. It also gave a pest or weed control at 250 g/ha [1, 8] of 100%, a pest or weed control at 500 g/ha [1, 8] of 100% and a pest or weed control at 62 g/ha [2, 9] of 0%. The pest or weed control at 125 g/ha [2, 9] was 0%, the pest or weed control at 250 g/ha [2, 10] was 0% and the pest or weed control at 500 g/ha [2, 10] was 0%. For the same molecule, the pest or weed control at 62 g/ha ([2]; pre-emergence, Preemergence, scale 0 to 100, 0 no effect, 100 complete control, read-out: Plant response rating, Nutsedge, Yellow) was 0%, the pest or weed control at 125 g/ha [2, 11] was 0% and the pest or weed control at 250 g/ha [2, 11] was 15%. It also gave a pest or weed control at 500 g/ha [2, 11] of 80%, a Corn plant response rating (crop injury, 0 = no effect, 100 = complete kill) at 62 g/ha (corn (Zea mays); post-emergence, Postemergence, 62 g ai/ha, scale 0 to 100 (0 no effect, 100 complete control), read-out: Corn plant response rating) of 0% and a Corn plant response rating (crop injury, 0 = no effect, 100 = complete kill) at 125 g/ha (corn (Zea mays); post-emergence, Postemergence, scale 0 to 100 (0 no effect, 100 complete control), read-out: Corn plant response rating) of 80%. For the same molecule, the Corn plant response rating (crop injury, 0 = no effect, 100 = complete kill) at 250 g/ha (corn (Zea mays); [12]) was 90%, the Corn plant response rating (crop injury, 0 = no effect, 100 = complete kill) at 500 g/ha (corn (Zea mays); [12]) was 95% and the Corn plant response rating (crop injury, 0 = no effect, 100 = complete kill) at 125 g/ha (corn (Zea mays); pre-emergence, Preemergence, scale 0 to 100, read-out: Plant response rating, Corn) was 0%. For the same molecule, the Corn plant response rating (crop injury, 0 = no effect, 100 = complete kill) at 250 g/ha (corn (Zea mays); [13]) was 75%, the Corn plant response rating (crop injury, 0 = no effect, 100 = complete kill) at 500 g/ha (corn (Zea mays); [13]) was 90% and the pest or weed control at 125 g/ha [3, 14] was 75%. For the same molecule, the pest or weed control at 500 g/ha [3, 15] was 95%, the pest or weed control at 62 g/ha [3, 14] was 60% and the pest or weed control at 250 g/ha [3, 15] was 75%. It also gave a pest or weed control at 62 g/ha ([3]; pre-emergence, Preemergence, scale 0 to 100, 0 no effect, 100 complete control, read-out: Plant response rating, Surinam Grass) of 0%, a pest or weed control at 125 g/ha [3, 16] of 65% and a pest or weed control at 250 g/ha [3, 16] of 85%. The pest or weed control at 500 g/ha [3, 16] was 100%, the pest or weed control at 62 g/ha [4, 17] was 80% and the pest or weed control at 125 g/ha [4, 17] was 100%. The pest or weed control at 250 g/ha [4, 18] was 100%, the pest or weed control at 500 g/ha [4, 18] was 100% and the pest or weed control at 62 g/ha ([4]; pre-emergence, Preemergence, scale 0 to 100, 0 no effect, 100 complete control, read-out: Plant response rating, Velvetleaf) was 75%. For the same molecule, the pest or weed control at 125 g/ha [4, 19] was 95%, the pest or weed control at 250 g/ha [4, 19] was 95% and the pest or weed control at 500 g/ha [4, 19] was 100%. The pest or weed control at 62 g/ha [5, 20] was 70%, the pest or weed control at 125 g/ha [5, 20] was 75% and the pest or weed control at 250 g/ha ([5]; post-emergence, Postemergence, 250 g ai/ha, scale 0 to 100, read-out: Plant response rating, Crabgrass) was 75%. The pest or weed control at 500 g/ha ([5]; post-emergence, Postemergence, 500 g ai/ha, scale 0 to 100, read-out: Plant response rating, Crabgrass) was 80%, the pest or weed control at 62 g/ha ([5]; pre-emergence, Preemergence, scale 0 to 100, 0 no effect, 100 complete control, read-out: Plant response rating, Crabgrass) was 40% and the pest or weed control at 125 g/ha ([5]; pre-emergence, Preemergence, scale 0 to 100, read-out: Plant response rating, Crabgrass) was 65%.
